Values joined by “and” are separate entries in the source; they are usually repeats but may differ in a detail not shown here. Identical values can stand only once. Like-named read-outs stand apart in the source and are kept apart here. Where only a bound is given, the exact number is not on record here.

One data set has as its system Pa03C cells. Nature of the data set: MTT cytotoxicity, Pa03C cells. Format: cell-based. As to conditions: for cell viability: 1440 min. The procedure: Pa03C cells were seeded in 96-well plates at a density of 4000 cells per well and allowed to adhere for 24 hours. Cells were incubated with drug-free nanocapsules (pEGCGs), free paclitaxel, or EFN nanocapsules of paclitaxel at concentrations ranging from 0.001 to 10 µg/mL calculated by paclitaxel content at 37 °C and 5% CO2 for 24 hr. After the incubation, the cells were washed with PBS 3 times, and 100 μL fresh medium was added to each well. Then, cells were cultured for […] another 24 hours. After incubation, 100 μL fresh medium was changed to each well, and 10 μL MTT was added to each well, followed by a 4 h incubation for cleavage at 37 °C. Then 100 μL isopropanol with 0.04 N HCl was added to each well and mixed thoroughly with the medium by repeated pipetting. The result was read with a test wavelength of 570 nm and a reference wavelength of 630 nm using a Microplate Spectrophotometer. Experiments were performed in triplicate and presented as means±SD.

For data set [1] the following is noted: cited from earlier work.
The subject of a further data set is PANC-1 cells. Nature of the data set: MTT cytotoxicity, PANC-1 cells (VPX). Format: cell-based, human. As to conditions: 24 hr. The procedure: (§1) PANC-1 cells were seeded in 96-well plates at a density of 5000 cells per well and allowed to adhere for 24 hours. CAF19 cells were seeded in 96-well plates at a density of 1500 cells per well and allowed to adhere for 24 hours. Cells were incubated with drug-free nanocapsules (pTAs), free drug of VPX, or TFN nanocapsules of VPX at the concentrations ranging from 0.05 to 20 μM calculated by VPX content at 37 °C and 5% CO2 for 24 hr. After the incubation, the cells were washed with PBS 3 times, and 100 μL fresh medium was added to each well. Cells were cultured for another 24 hours. After incubation, 100 μL fresh medium was changed to each well, and 10 μL MTT was added to each well, followed by 4 hr incubation for cleavage at 37 °C. Then 100 μL isopropanol with 0.04 N HCl was added to each well and mixed thoroughly with the medium by repeated pipetting. The result was read with a test wavelength of 570 nm and a reference wavelength of 630 nm using a Microplate Spectrophotometer. Experiments were performed in triplicate and presented as means±SD.

In the next data set the test system is CAF19 cells. Nature of the data set: MTT cytotoxicity, CAF19 cells (VPX). The class given is cell-based. As to conditions: 24 hr. Here is the method: as §1
A further data set concerns Pancl cells. Nature of the data set: MTT cytotoxicity, Panc1 cells (curcumin). The class given is cell-based, human. The following applies: dosages >40 μM. Here is the method: Panc 10.05 or Pancl cells were seeded in 96-well plates at a density of 5,000 cells per well and allowed to adhere overnight. Panc10.05 cells were incubated with drug-free nanocapsules (pTAs), free paclitaxel, or TFN nanocapsules of paclitaxel at the concentrations ranging from 0.001 to 10 μg mL^−1 calculated by paclitaxel content at 37 °C and 5% CO2 for 24 hr. Pancl cells were incubated with pTAs, free curcumin, or TFN nanocapsules of curcumin at the concentration of 5-160 μM calculated by curcumin content at 37 °C and 5% CO2 for 48 hr. After the incubation, the cells were washed with PBS three times, and 100 μL fresh medium was added to each well. Then cells were cultured for another 24 hours. After incubation, 100 μL fresh medium was added to each well, and 10 μL MTT was added to each well, followed by a 4 h incubation for cleavage at 37 °C. Then 100 μL isopropanol with 0.04 N HCl was added to each well and mixed thoroughly with the medium by repeated pipetting. The result was read with a test wavelength of 570 nm and a reference wavelength of 630 nm using a Microplate Spectrophotometer. Experiments were performed in triplicate and presented as means±SD.

For `O=C(O[C@@H]1Cc2c(O)cc(O)cc2O[C@@H]1c1cc(O)c(O)c(O)c1)c1cc(O)c(O)c(O)c1` [EGCG, epigallocatechin-3-gallate], the anticancer activity entry in the data set on Pa03C cells (EGCG on its own (from EFN cytotoxicity test)) is reported as “significant anticancer activity”.
Consider `C=C1CC[C@H](O)C/C1=C/C=C1\CCC[C@]2(C)[C@@H]([C@H](C)CCCC(C)C)CC[C@@H]12` [VD3, vitamin D], for which the water solubility in data set [1] (room temperature) was under 1 ng/mL.
Take `CCOC(=O)N[C@@H]1CC[C@@H]2[C@@H](C1)C[C@H]1C(=O)O[C@H](C)[C@H]1[C@H]2/C=C/c1ccc(-c2cccc(F)c2)cn1` [VPX, vorapaxar]: the water solubility in data set [1] (VPX) is 1.4 μg/mL and ~ 3 μM. Moreover, the cell viability entry in the data set on PANC-1 cells (VPX treatment up to 20 μM) and in the data set on CAF19 cells (VPX treatment up to 20 μM) was “above 100%” throughout. The toxicity entry in the data set on PANC-1 cells (up to 20 μM (VPX content)) and in the data set with CAF19 cells (up to 20 μM (VPX content)) was “no toxicity” each time.
For `COc1cc(/C=C/C(=O)CC(=O)/C=C/c2ccc(O)c(OC)c2)ccc1O` [free curcumin, curcumin], the “suppression of cell growth” value in the data set on Pancl cells is “significant suppression of Pancl growth”.
As for `CC(=O)O[C@H]1C(=O)[C@@]2(C)[C@H]([C@H](OC(=O)c3ccccc3)[C@]3(O)C[C@H](OC(=O)[C@H](O)[C@@H](NC(=O)c4ccccc4)c4ccccc4)C(C)=C1C3(C)C)[C@]1(OC(C)=O)CO[C@@H]1C[C@@H]2O` [free PTX, paclitaxel], the cell viability in the data set on Pa03C cells (PTX dosages >0.1 g/mL) and in the data set with Pa03C cells (dosages of 1-10 μg/mL) was ~ 50% each time. In data set [1] (water), the water solubility was over 1000 ng/mL.
